Key:
[1] = target: T1, human RORγt (Ligand Binding Domain) (Homo sapiens, UniProt P51449); test: Fluorescence Polarization (FP) Assay; conditions: 100 nM human RORγt LBD, 25 nM TAMRA probe, values are activity range bounds
T1 construct: purchased Crelux (Planegg, Germany) batch no PC5032-1
T1 sequence (P51449 269-508 limits assumed): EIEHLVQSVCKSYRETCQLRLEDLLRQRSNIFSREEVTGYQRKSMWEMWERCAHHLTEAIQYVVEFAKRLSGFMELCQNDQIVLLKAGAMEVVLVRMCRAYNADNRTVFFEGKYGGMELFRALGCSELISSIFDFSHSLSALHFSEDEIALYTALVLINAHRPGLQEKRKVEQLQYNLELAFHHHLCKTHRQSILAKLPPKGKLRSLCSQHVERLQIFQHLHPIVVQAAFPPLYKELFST
Method in brief: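 In vitro fluorescence polarization binding assay on the RORγt ligand-binding pocket. A TAMRA-labelled RORγt ligand probe (MW 910 g/mol) was used, with DMSO as negative control.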

[2] = target: T2, ligand binding domain of human RORγ (Homo sapiens, UniProt P51449); test: RORγ Reporter Assay (Gal4); format: cell-based; conditions: for inhibition at 1 µM: HEK-293T, read-out: Gal4 activity range @ 1 μM (% inhibition); for Gal4 activity range @ 0.1 μM (% inhibition): RORγ Reporter Assay (Gal4), HEK293t reporter cells, compound at 0.1 μM, values are activity range bounds
T2 construct: host or cells: HEK293t
T2 sequence (P51449 269-508 limits assumed): T1 sequence (P51449 269-508 limits assumed)
Method in brief: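 HEK293t cells expressing Gal4 DBD–human RORγ LBD hybrid with Gal4-UAS firefly luciferase reporter; compounds at final 1,000 nM and 100 nM (0.1% DMSO), triplicate, medium with 10% charcoal-stripped FBS, 24 h at 37 °C. Luminescence read; percent reduction of RORγ activity calculated versus vehicle-only wells.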

[3] = 1 μM test compound, HEK293t RORγ reporter cells, 24 hour

| SMILES | IC50 [1] | inhibition at 1 µM [2, 3] | Gal4 activity range @ 0.1 μM (% inhibition) [2] | Gal4 activity range @ 1 μM (% inhibition) ([2]; 1 μM test compound, HEK293t RORγ reporter cells, 24 hour, 1 µM) |
| --- | --- | --- | --- | --- |
| CC(C)c1ccc(CN(c2ncnc(NCc3ccc(CC(N)=O)cc3)c2F)C2CC2)cn1 [Example A97, 2-[4-[[[6-[cyclopropyl-[(6-isopropyl-3-pyridyl)methyl]amino]-5-fluoro-pyrimidin-4-yl]amino]methyl]phenyl]acetamide] | < 500 nM | > 80% | >50 % inhibition | – |
| NC(=O)Cc1ccc(CNc2ncnc(N(Cc3cnc(C(F)(F)F)nc3)C3CC3)c2F)cc1 [Example A98, 2-[4-[[[6-[cyclopropyl-[[2-(trifluoromethyl)pyrimidin-5-yl]methyl]amino]-5-fluoro-pyrimidin-4-yl]amino]methyl]phenyl]acetamide] | < 500 nM | > 80% | >50 % inhibition | – |
| NC(=O)Cc1ccc(CNc2ncnc(N(Cc3cccc(C(F)(F)F)c3)C3CC3)c2F)cc1 [Example A101, 2-[4-[[[6-[cyclopropyl-[[3-(trifluoromethyl)phenyl]methyl]amino]-5-fluoro-pyrimidin-4-yl]amino]methyl]phenyl]acetamide] | < 500 nM | > 50% | >50 % inhibition | – |
| CC(c1ccc(C(F)(F)F)nc1)N(c1ncnc(NCc2ccc(CC(N)=O)cc2)c1F)C1CC1 (stereo not shown) [Example A103, 2-[4-[[[6-[cyclopropyl-[1-[6-(trifluoromethyl)-3-pyridyl]ethyl]amino]-5-fluoro-pyrimidin-4-yl]amino]methyl]phenyl]acetamide] | < 1000 nM | > 80% | >0 % inhibition | – |
| CC(c1ccc(C(F)(F)F)cn1)N(c1ncnc(NCc2ccc(CC(N)=O)cc2)c1F)C1CC1 (stereo not shown) [Example A104, 2-[4-[[[6-[cyclopropyl-[1-[5-(trifluoromethyl)-2-pyridyl]ethyl]amino]-5-fluoro-pyrimidin-4-yl]amino]methyl]phenyl]acetamide] | < 1000 nM | > 80% | >50 % inhibition | – |
| NC(=O)Cc1ccc(CNc2cc(N(Cc3ccc(C(F)(F)F)cc3)C3CC3)ncn2)cc1 [Example A107, 2-[4-[[[6-[cyclopropyl-[[4-(trifluoromethyl)phenyl]methyl]amino]pyrimidin-4-yl]amino]methyl]phenyl]acetamide] | < 1000 nM | > 50% | >0 % inhibition | – |
| CS(=O)(=O)c1ccc(CNc2ncnc(N(Cc3ccc(C(F)(F)F)cn3)C3CC3)c2F)cn1 [Example A108, N4-cyclopropyl-5-fluoro-N6-[(6-methylsulfonyl-3-pyridyl)methyl]-N4-[[5-(trifluoromethyl)-2-pyridyl]methyl]pyrimidine-4,6-diamine] | < 2000 nM | > 80% | >20 % inhibition | – |
| CS(=O)(=O)Nc1ncc(CNc2ncnc(N(Cc3ccc(C(F)(F)F)cc3)C3CC3)c2F)cc1F [Example A109, N-[5-[[[6-[cyclopropyl-[[4-(trifluoromethyl)phenyl]methyl]amino]-5-fluoro-pyrimidin-4-yl]amino]methyl]-3-fluoro-2-pyridyl]methanesulfonamide] | < 500 nM | > 80% | >0 % inhibition | – |
| CS(=O)(=O)c1ccc(CNc2ncnc(N(Cc3ccc(C(F)(F)F)nc3)C3CC3)c2F)cn1 [Example A110, N4-cyclopropyl-5-fluoro-N6-[(6-methylsulfonyl-3-pyridyl)methyl]-N4-[[6-(trifluoromethyl)-3-pyridyl]methyl]pyrimidine-4,6-diamine] | < 2000 nM | > 50% | >0 % inhibition | – |
| COc1ccc2cc(CN(C)c3ncnc(NCc4ccc(CC(N)=O)cc4)c3F)ccc2c1 [Example A120, 2-[4-[[[5-fluoro-6-[(6-methoxy-2-naphthyl)methyl-methyl-amino]pyrimidin-4-yl]amino]methyl]phenyl]acetamide] | < 500 nM | > 80% | >20 % inhibition | – |
| CCCn1nc(C)cc1CN(C)c1ncnc(NCc2ccc(CC(N)=O)cc2)c1F [Example A124, 2-[4-[[[5-fluoro-6-[methyl-[(5-methyl-2-propyl-pyrazol-3-yl)methyl]amino]pyrimidin-4-yl]amino]methyl]phenyl]acetamide] | < 500 nM | – | >0 % inhibition | >20% |
| Cc1nc(C)c(C(C)N(C)c2ncnc(NCc3ccc(CC(N)=O)cc3)c2F)s1 (stereo not shown) [Example A125, 2-[4-[[[6-[1-(2,4-dimethylthiazol-5-yl)ethyl-methyl-amino]-5-fluoro-pyrimidin-4-yl]amino]methyl]phenyl]acetamide] | < 500 nM | > 50% | >0 % inhibition | – |
| Cc1ccc(CN(C)c2ncnc(NCc3ccc(CC(N)=O)cc3)c2F)c(C)c1 [Example A138, 2-[4-[[[6-[(2,4-dimethylphenyl)methyl-methyl-amino]-5-fluoro-pyrimidin-4-yl]amino]methyl]phenyl]acetamide] | < 500 nM | > 20% | >0 % inhibition | – |
| CN(Cc1cccc(-n2cccn2)c1)c1ncnc(NC[C@H]2CC[C@H](NS(=O)(=O)C(F)(F)F)CC2)c1F [Example A142, 1,1,1-trifluoro-N-[4-[[[5-fluoro-6-[methyl-[(3-pyrazol-1-ylphenyl)methyl]amino]pyrimidin-4-yl]amino]methyl]cyclohexyl] methanesulfonamide] | < 500 nM | > 50% | >0 % inhibition | – |
| CN(Cc1cccc(-n2cccn2)c1)c1ncnc(NCC2CCN(S(C)(=O)=O)CC2)c1F [Example A143, 5-fluoro-N6-methyl-N4-[(1-methylsulfonyl-4-piperidyl)methyl]-N6-[(3-pyrazol-1-ylphenyl)methyl]pyrimidine-4,6-diamine] | < 500 nM | > 80% | >20 % inhibition | – |
| CCN(CC1COc2ccccc2O1)c1ncnc(NCc2ccc(CC(N)=O)cc2)c1F (stereo not shown) [Example A145, 2-[4-[[[6-[2,3-dihydro-1,4-benzodioxin-3-ylmethyl(ethyl)amino]-5-fluoro-pyrimidin-4-yl]amino]methyl]phenyl]acetamide] | < 500 nM | > 50% | >0 % inhibition | – |
| CS(=O)(=O)c1ccc(CCNc2ncnc(N(Cc3ccc(C(F)(F)F)cc3)C3CC3)c2F)cc1 [Example A147, N4-cyclopropyl-5-fluoro-N6-[2-(4-methylsulfonylphenyl)ethyl]-N4-[[4-(trifluoromethyl)phenyl]methyl] pyrimidine-4,6-diamine] | < 500 nM | > 80% | >50 % inhibition | – |
| CCCn1nc(C)cc1CN(C)c1ncnc(NCC2CCN(S(C)(=O)=O)CC2)c1F [Example A148, 5-fluoro-N4-methyl-N4-[(5-methyl-2-propyl-pyrazol-3-yl)methyl]-N6-[(1-methylsulfonyl-4-piperidyl)methyl]pyrimidine-4,6-diamine] | < 500 nM | > 20% | >0 % inhibition | – |
| CCCn1nc(C)cc1CN(C)c1ncnc(NCC2CCN(S(=O)(=O)C(F)F)CC2)c1F [Example A149, N6-[[1-(difluoromethylsulfonyl)-4-piperidyl]methyl]-5-fluoro-N4-methyl-N4-[(5-methyl-2-propyl-pyrazol-3-yl)methyl]pyrimidine-4,6-diamine] | < 500 nM | > 20% | – | – |
| CCCn1nc(C)cc1CN(C)c1ncnc(NCc2ccc(CC(=O)O)cc2)c1F [Example A150, 2-[4-[[[5-fluoro-6-[methyl-[(5-methyl-2-propyl-pyrazol-3-yl)methyl]amino]pyrimidin-4-yl]amino]methyl]phenyl]acetic acid] | < 2000 nM | > 20% | – | – |
| CN(C)CCNC(=O)CC1(CNc2ncnc(N(Cc3ccc(C(F)(F)F)cc3)C3CC3)c2F)CCOCC1 [Example A151, 2-[4-[[[6-[cyclopropyl-[[4-(trifluoromethyl)phenyl]methyl]amino]-5-fluoro-pyrimidin-4-yl]amino]methyl]tetrahydropyran-4-yl]-N-(2-dimethylaminoethyl)acetamide] | < 1000 nM | > 50% | >0 % inhibition | – |
| NC(=O)Cc1ccc(CNc2ncnc3c2ccn3Cc2ccc(C(F)(F)F)cc2)cc1 [Example A164, 2-[4-[[[7-[[4-(trifluoromethyl)phenyl]methyl]pyrrolo[2,3-d]pyrimidin-4-yl]amino]methyl]phenyl]acetamide] | < 1000 nM | > 50% | >20 % inhibition | – |

Source: patent US10683293B2, “Optionally fused heterocyclyl-substituted derivatives of pyrimidine useful for the treatment of inflammatory, metabolic, oncologic and autoimmune diseases” (NUEVOLUTION A/S, priority 2014, dated 2020)
